SMILES strings stand for the structures.

The first test relates to K562. The test can be described thus: K562 assay, in vitro cytotoxicity of PBD payloads (MTS, 4 days). The format is cell-based. As to conditions: Homo sapiens, K562, 96 h; 4 days incubation, mean of three independent replicates. On the procedure:
The potency of each of the PBD molecules were measured via in vitro cytotox assays in the carcinoma cell line K562.
(§1) Solid PBD material was dissolved in DMSO to a 2 mM stock solution, from which eight serial dilutions were made at a 1:10 ratio in DMSO and stored at −20° C. until use.
Adherent K562 cells were washed with D-PBS and detached with Trypsin-EDTA, cell density and viability were then determined in duplicate by Trypan blue exclusion assay using an automated cell counter (LUNA-II™). Cell suspension was diluted to 1×10^5 cells/ml in growth media (RPMI 1640 with Glutamax+10% (v/v) HyClone™ Fetal Bovine Serum) and vortexed before dispensing 2 mL per well into sterile 3 mL polypropylene plates. […] At the end of the incubation period time (4 days), cell viability was measured by CellTiter 96® Aqueous One (MTS) assay, which was dispensed at 20 μl/well and incubated for 4 hours at 37° C., 5% CO2. Plates were then read on an EnVision® Multi-label Plate Reader (Perkin Elmer) using absorbance at 490 nm.
Cell survival percentage was calculated from the mean absorbance of the 2 replicate wells for each sample, compared to the mean absorbance in the two control wells treated with DMSO only (100%). The IC50 was determined by fitting each data set to sigmoidal dose-response curves with a variable slope using the non-linear curve fit algorithm on the GraphPad Prism software (San Diego, Calif.). […]
Regarding `COC(=O)c1cc(COc2cc3c(cc2OC)C(=O)N2C=C(C)C[C@H]2C=N3)cc(COc2cc3c(cc2OC)C(=O)N2C=C(C)C[C@H]2C=N3)c1` [Compound 47, Methyl 3,5-bis((((S)-7-methoxy-2-methyl-5-oxo-5,11a-dihydro-1H-benzo[e]pyrrolo[1,2-a][1,4]diazepin-8-yl)oxy)methyl)benzoate], the IC50 is 0.162 nM.
The same measure, in the same setting: as for `COc1cc2c(cc1OCc1cc(COc3cc4c(cc3OC)C(=O)N3C=C(C)C[C@H]3C=N4)cc(C(=O)O)c1)N=C[C@@H]1CC(C)=CN1C2=O` [Compound 49, 3,5-bis((((S)-7-methoxy-2-methyl-5-oxo-5,11a-dihydro-1H-benzo[e]pyrrolo[1,2-a][1,4]diazepin-8-yl)oxy)methyl)benzoic acid], the figure is 1.84 nM.

The test system of another test is NCI-N87. The test can be described thus: NCI-N87 assay, in vitro cytotoxicity of PBD payloads (MTS, 7 days). The format is cell-based. As to conditions: Homo sapiens, NCI-N87, 168 h; 7 days incubation, mean of three independent replicates. On the procedure:
The potency of each of the PBD molecules were measured via in vitro cytotoxicity assays in the carcinoma cell line NCI-N87.
as §1
Adherent NCI-N87 cells were washed with D-PBS and detached with Trypsin-EDTA, cell density and viability were then determined in duplicate by Trypan blue exclusion assay using an automated cell counter (LUNA-II™). Cell suspension was diluted to 1×10^5 cells/ml in growth media (RPMI 1640 with Glutamax+10% (v/v) HyClone™ Fetal Bovine Serum) and vortexed before dispensing 2 mL per well into sterile 3 mL polypropylene plates. Warhead dilutions were then dispensed into the appropriate wells at 10 μl/well and mixed by repeat pipetting. For control wells 10 μl of DMSO was dispensed onto 2 mL cell suspension, and thoroughly mixed. 100 μl of each sample was then aliquoted into 2 replicate wells of a sterile flat 96-well microplate and incubated in a 37° C. CO2-gassed (5%) incubator. At the end of the incubation period time (7 days), cell viability was measured by CellTiter 96® Aqueous One (MTS) assay, which was dispensed at 20 μl/well and incubated for 4 hours at 37° C., 5% CO2.
Plates were then read on an EnVision® Multi-label Plate Reader (Perkin Elmer) using absorbance at 490 nm.
Cell survival percentage was calculated from the mean absorbance of the 2 replicate wells for each sample, compared to the mean absorbance in the two control wells treated with DMSO only (100%). The IC50 was determined by fitting each data set to sigmoidal dose-response curves with a variable slope using the non-linear curve fit algorithm on the GraphPad Prism software (San Diego, Calif.).
All the experiments in this report were carried out and tested in three independent experiments. Data are reported as the mean of the three independent replicates.
Take `C=C1C[C@H]2C=Nc3cc(OCc4cc(C(=O)O)cc(COc5cc6c(cc5OC)C(=O)N5CC(=C)C[C@H]5C=N6)n4)c(OC)cc3C(=O)N2C1` [Compound 56, 2,6-Bis((((S)-7-methoxy-2-methylene-5-oxo-2,3,5,11a-tetrahydro-1H-benzo[e]pyrrolo[1,2-a][1,4]diazepin-8-yl)oxy)methyl)isonicotinic acid]: the IC50 was 20.7 nM.
With `C=C1C[C@H]2C=Nc3cc(OCc4cc(COc5cc6c(cc5OC)C(=O)N5CC(=C)C[C@H]5C=N6)cc(C(=O)OC)c4)c(OC)cc3C(=O)N2C1` [Compound 51, Methyl 3,5-bis((((S)-7-methoxy-2-methylene-5-oxo-2,3,5,11a-tetrahydro-1H-benzo[e]pyrrolo[1,2-a][1,4]diazepin-8-yl)oxy)methyl)benzoate], the IC50 came out at 0.0685 nM.
In turn, `C=C1C[C@H]2C=Nc3cc(OCc4cc(COc5cc6c(cc5OC)C(=O)N5CC(=C)C[C@H]5C=N6)cc(C(=O)O)c4)c(OC)cc3C(=O)N2C1` [Compound 53, 3,5-bis((((S)-7-Methoxy-2-methylene-5-oxo-2,3,5,11a-tetrahydro-1H-benzo[e]pyrrolo[1,2-a][1,4]diazepin-8-yl)oxy)methyl)benzoic acid] had an IC50 of 4.31 nM.
On the same count and under the same terms, next, `C=C1C[C@H]2C=Nc3cc(OCc4cc(C(=O)OC)cc(COc5cc6c(cc5OC)C(=O)N5CC(=C)C[C@H]5C=N6)n4)c(OC)cc3C(=O)N2C1` [Compound 55, Methyl 2,6-bis((((S)-7-methoxy-2-methylene-5-oxo-2,3,5,11a-tetrahydro-1H-benzo[e]pyrrolo[1,2-a][1,4]diazepin-8-yl)oxy)methyl)isonicotinate]: 0.0168 nM; `C=C1C[C@H]2C=Nc3cc(OCc4cccc(COc5cc6c(cc5OC)C(=O)N5CC(=C)C[C@H]5C=N6)c4)c(OC)cc3C(=O)N2C1` [Compound 58, (11aS,11a′S)-8,8′-((1,3-phenylenebis(methylene))bis(oxy))bis(7-methoxy-2-methylene-1,2,3,11a-tetrahydro-5H-benzo[e]pyrrolo[1,2-a][1,4]diazepin-5-one), reference compound]: 0.0172 nM.

The values are drawn from US11524969B2, “Pyrrolobenzodiazepines and conjugates thereof as antitumour agents” (MEDIMMUNE LIMITED, priority 2018, dated 2022).
